Results on 36 molecules are retold here after paper PMC6301270 (MedChemComm, 2018).

In the assay the test system is T.b. brucei (strain 427) bloodstream form parasites. Kind of assay: T.b. brucei single concentration screen (10 μM). Conditions: Trypanosoma brucei, read-out: T.b.brucei % viability (10 µM).
Usually viability stands for a read-out of living cells in per cent, often relative to untreated cells. Regarding `CC1=Nc2ccc(Cl)cc2C(c2ccccc2)N1CCNC(=O)CN(C)C` (stereo not drawn) [MMV688410, CN(C)CC(=O)NCCN1C(c2ccccc2)c3cc(Cl)ccc3N=C1C], the viability at 10 µM worked out at 77%.

Regarding `Nc1ncnc2c1c(-c1cnc3ccccc3c1)nn2CC1CCNCC1` [MMV688411, Nc1ncnc2n(CC3CCNCC3)nc(-c3cnc4ccccc4c3)c12], the viability at 10 µM was determined as 104%.

In the case of `CO[C@@H]1CN(c2ccc(C#CC3(O)CN4CCC3CC4)c(Cc3ccccc3)n2)C[C@H]1O` (stereo partly drawn) [MMV688415, CO[C@@H]1CN(C[C@H]1O)c2ccc(C#CC3(O)CN4CCC3CC4)c(Cc5ccccc5)n2], the viability at 10 µM amounted to 99%.

Take `CC(C)(C)OC(=O)N1CCN(c2nccc(-c3ccc(-c4ccc(Cl)cc4)s3)n2)CC1` [MMV688416, CC(C)(C)OC(=O)N1CCN(CC1)c2nccc(n2)c3ccc(s3)c4ccc(Cl)cc4]: the viability at 10 µM was determined as 94%.

Regarding `Cn1ccnc1CNCCS(=O)(=O)c1cccc(Nc2ccc(-c3cccc(F)c3)cn2)c1` [MMV688466, Cn1ccnc1CNCCS(=O)(=O)c2cccc(Nc3ccc(cn3)c4cccc(F)c4)c2], the viability at 10 µM was 87%.

As for `Nc1ncnc2[nH]nc(Cc3cccc4ccccc34)c12` [MMV688469, Nc1ncnc2[nH]nc(Cc3cccc4ccccc34)c12], the viability at 10 µM was determined as 98%.

On to `CS(=O)(=O)N1CCC(CCn2nc(Cc3cccc4ccccc34)c3c(N)ncnc32)CC1` [MMV688470, CS(=O)(=O)N1CCC(CCn2nc(Cc3cccc4ccccc34)c3c(N)ncnc23)CC1], for which the viability at 10 µM stood at 99%.

For `CC(C(=O)Nc1ccc2oc(-c3ccncc3)nc2c1)c1ccccc1` (stereo not drawn) [MMV688471, CC(C(=O)Nc1ccc2oc(nc2c1)-c1ccncc1)c1ccccc1], the viability at 10 µM worked out at 67%.

In the case of `CC(Oc1cccc(Cl)c1)C(=O)Nc1ccc2oc(-c3ccncc3)nc2c1` (stereo not drawn) [MMV688472, CC(Oc1cccc(Cl)c1)C(=O)Nc1ccc2oc(nc2c1)-c1ccncc1], the viability at 10 µM turned out to be 71%.

On to `COc1cc(C2=NCCN2)ccc1-n1cc(-c2cccc(C3=NCCN3)c2)nn1` [MMV688474, COc1cc(ccc1n2cc(nn2)c3cccc(c3)C4=NCCN4)C5=NCCN5], for which the viability at 10 µM was 105%.

Turning to `CC(=O)NCC1CN(c2ccc(-c3ccc(CO)cc3)c(F)c2)C(=O)O1` (stereo not drawn) [MMV688508, CC(=O)NCC1CN(C(=O)O1)c2ccc(c(F)c2)c3ccc(CO)cc3], the viability at 10 µM amounted to 81%.

On to `O=C(OCc1ccccc1)N1CCC(c2cc(-c3ccncc3)c(-c3ccc(F)cc3)[nH]2)CC1` [MMV688509, Fc1ccc(cc1)-c1[nH]c(cc1-c1ccncc1)C1CCN(CC1)C(=O)OCc1ccccc1], for which the viability at 10 µM came out at 85%.

With `CC(C)(C)C(=O)N(CCCCCCN1C[C@H](O)[C@@H](O)[C@H](O)[C@H]1CO)C1CCCCCC1` [MMV688543, CC(C)(C)C(=O)N(CCCCCCN1C[C@H](O)[C@@H](O)[C@H](O)[C@H]1CO)C2CCCCCC2], the viability at 10 µM is 107%.

On to `COc1ccc(C2=NCCN2)cc1-c1cn(-c2cccc(C3=NCCN3)c2)nn1` [MMV688547, COc1ccc(cc1c2cn(nn2)c3cccc(c3)C4=NCCN4)C5=NCCN5], for which the viability at 10 µM amounted to 77%.

On to `CC(C)(C)n1nc(-c2ccccc2)c2c(N)ncnc21` [MMV688548, CC(C)(C)n1nc(-c2ccccc2)c2c(N)ncnc12], for which the viability at 10 µM turned out to be 81%.

Consider `Cc1nn(C(=O)Nc2cccc(C(F)(F)F)c2)c(C)c1Sc1ncccn1` [MMV688552, CC(C(SC1=NC=CC=N1)=C2C)=NN2C(NC3=CC=CC(C(F)(F)F)=C3)=O], for which the viability at 10 µM was 96%.

Take `O=C(NCc1ccoc1)N1CCN(Cc2ccc3c(c2)OCO3)CC1` [MMV688553, O=C(NCc1cocc1)N2CCN(Cc3ccc4OCOc4c3)CC2]: the viability at 10 µM amounted to 98%.

On to `CNc1snc(C)c1C(=O)NCCOc1ccc(OC)cc1` [MMV688554, CNc1snc(C)c1C(=O)NCCOc2ccc(OC)cc2], for which the viability at 10 µM stood at 92%.

On to `O=C(NCc1ccco1)N1CCN(Cc2ccc(Cl)s2)CC1` [MMV688555, Clc1ccc(CN2CCN(CC2)C(=O)NCc3occc3)s1], for which the viability at 10 µM is 103%.

As to `NCC(c1cccs1)S(=O)(=O)c1ccccc1` (stereo not drawn) [MMV688557, NCC(c1cccs1)S(=O)(=O)c2ccccc2], the viability at 10 µM amounted to 99%.

In the case of `CN1CCC(c2cc(-c3ccncc3)c(-c3ccc(F)cc3)[nH]2)CC1` [MMV688703, CN1CCC(CC1)c1cc(c([nH]1)-c1ccc(F)cc1)-c1ccncc1], the viability at 10 µM came to 68%.

Consider `Cc1cc2nc(NC(=O)C(C)(C)C)nc(Cl)c2n1Cc1ccc(Cl)cc1` [MMV688704, Cc1cc2nc(NC(=O)C(C)(C)C)nc(Cl)c2n1Cc1ccc(Cl)cc1], for which the viability at 10 µM was found to be 88%.

For the molecule `CO/N=C(\C(=O)OC)c1ccccc1CO/N=C(\C)c1cccc(C(F)(F)F)c1` [MMV688754, CO\N=C(/C(=O)OC)\c1ccccc1CO\N=C(/C)\c2cccc(c2)C(F)(F)F], the viability at 10 µM is 100%.

As for `O=[N+]([O-])c1cn2c(n1)OC[C@@H](OCc1ccc(OC(F)(F)F)cc1)C2` [MMV688755, [O-][N+](=O)c1cn2C[C@@H](COc2n1)OCc3ccc(OC(F)(F)F)cc3], the viability at 10 µM was found to be 95%.

As for `CC(=O)NC[C@H]1CN(c2ccc(N3CCSCC3)c(F)c2)C(=O)O1` [MMV688756, CC(=O)NC[C@H]1CN(C(=O)O1)c2ccc(N3CCSCC3)c(F)c2], the viability at 10 µM was found to be 106%.

With `c1ccc(-c2[nH]c3ccccc3c2C(c2ccccn2)N2CCCC2)cc1` (stereo not drawn) [MMV688762, C1CCN(C1)C(c2ccccn2)c3c([nH]c4ccccc34)c5ccccc5], the viability at 10 µM stood at 108%.

Take `CNc1nnc(Sc2cnn(-c3ccccc3)c(=O)c2Cl)s1` [MMV688763, CNc1nnc(SC2=C(Cl)C(=O)N(N=C2)c3ccccc3)s1]: the viability at 10 µM was 49%.

`COc1ccc(-c2onc(C(F)(F)F)c2-c2ccc(Cl)cc2)c(O)c1` [MMV688766, COc1ccc(c(O)c1)c2onc(c2c3ccc(Cl)cc3)C(F)(F)F]: the viability at 10 µM was determined as 88%.

Turning to `Cc1ccccc1C(=O)N1N=C(Nc2ccccc2)SC1(C)C` [MMV688771, Cc1ccccc1C(=O)N2N=C(Nc3ccccc3)SC2(C)C], the viability at 10 µM was 97%.

Regarding `O=C(N[C@H](Cc1ccccc1)C(=O)Nc1ccccc1N1CCOCC1)c1cccs1` [MMV688845, O=C(Nc1ccccc1N2CCOCC2)[C@@H](Cc3ccccc3)NC(=O)c4cccs4], the viability at 10 µM was 94%.

With `Cc1ccccc1CN1CCC(O)(c2ccc(Cl)c(C(F)(F)F)c2)CC1` [MMV688846, Cc1ccccc1CN2CCC(O)(CC2)c3ccc(Cl)c(c3)C(F)(F)F], the viability at 10 µM is 98%.

Turning to `CC(C)(C)n1nc(Cc2ccc(F)c(Cl)c2)c2c(N)ncnc21` [MMV688852, CC(C)(C)n1nc(Cc2ccc(F)c(Cl)c2)c2c(N)ncnc12], the viability at 10 µM is 87%.

As to `CCOc1ccc2cc(-c3nn(C(C)(C)C)c(N)c3C(N)=O)cnc2c1` [MMV688853, CCOc1ccc2cc(cnc2c1)c3nn(c(N)c3C(=O)N)C(C)(C)C], the viability at 10 µM was 99%.

For the molecule `CCOc1ccc2cc(-c3nn(CC4CCN(C)CC4)c4ncnc(N)c34)ccc2c1` [MMV688854, CCOc1ccc2cc(ccc2c1)c3nn(CC4CCN(C)CC4)c5ncnc(N)c35], the viability at 10 µM is 33%.

As for `CN1CCN(c2cc(-c3ccc(F)cc3)nc(-c3ccncc3)n2)CC1` [MMV688888, CN1CCN(CC1)c2cc(nc(n2)c3ccncc3)c4ccc(F)cc4], the viability at 10 µM was 92%.

`Clc1ccc(CCNc2cc(-c3ccccc3)nc3ncnn23)cc1` [MMV688889, Clc1ccc(CCNc2cc(nc3ncnn23)c4ccccc4)cc1]: the viability at 10 µM came to 74%.
